Values after ≈ are worked out from the molar mass of the structure shown.
Tests used:
Test in all cases: In vitro antibacterial evaluation: minimum inhibitory concentration (MIC), broth dilution method
Format in all cases: cell-based
Conditions in all cases: broth dilution, 18 hours at 35° C.
Escherichia coli = test system: Escherichia coli
Enterococcus sp. = test system: Enterococcus sp.
In short: (§1)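 NCCLS M7-A2 broth dilution with Mueller-Hinton II, testing 64-0.06 μg/mL antibiotic against 5×10^5 CFU/mL inocula. Test strains include recent methicillin-, penicillin- or vancomycin-resistant clinical isolates. MIC is the lowest concentration preventing growth.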

Staphylococcus sp. = test system: Staphylococcus sp.
In short: as §1

Streptococcus sp. = test system: Streptococcus sp.
In short: as §1

CC(c1ccccc1)C1NC(=O)CNC(=O)C(CO)NC(=O)C(C(O)C2CNC(=N)N2C2OC(CO)C(O)C(O)C2O)NC(=O)C(C(O)C2CNC(=N)N2)NC(=O)C(Cc2ccc3oc(SCc4ccc5ccccc5c4)nc3c2)NC1=O (stereo not drawn) [Example 46, Cyclo[3-[2-[(naphthylmethyl)thio]-1,3-benzoxazol-5-yl]alanyl-3-(2-iminoimidazolidin-4-yl)-seryl-3-(3-hexopyranosyl-2-iminoimidazolidin-4-yl)serylserylglycyl-β-methylphenylalanyl]]
MIC Escherichia coli (ATCC 25922) (Escherichia coli): 64 µg/mL (≈ 54.8 µM) | MIC Escherichia coli (GC 4559) (Escherichia coli): 64 µg/mL (≈ 54.8 µM) | MIC Escherichia coli (GC 4560) (Escherichia coli): 16 µg/mL (≈ 13.7 µM) | MIC Enterococcus avium (GC 4558) (Enterococcus sp.; Enterococcus avium (GC 4558)): 4 µg/mL (≈ 3.42 µM) | MIC Enterococcus faecalis (ATCC 29212) (Enterococcus sp.; Enterococcus faecalis (ATCC 29212)): 8 µg/mL (≈ 6.85 µM) | MIC Enterococcus faecalis (GC 2242) (Enterococcus sp.; Enterococcus faecalis (GC 2242)): 8 µg/mL (≈ 6.85 µM) | MIC Enterococcus faecalis (GC 2691) (Enterococcus sp.; Enterococcus faecalis (GC 2691)): 16 µg/mL (≈ 13.7 µM) | MIC Enterococcus faecalis (GC 3059) (Enterococcus sp.; Enterococcus faecalis (GC 3059)): 32 µg/mL (≈ 27.4 µM) | MIC Enterococcus faecalis (GC 4552) (Enterococcus sp.; Enterococcus faecalis (GC 4552)): 8 µg/mL (≈ 6.85 µM) | MIC Enterococcus faecalis (GC 4553) (Enterococcus sp.; Enterococcus faecalis (GC 4553)): 4 µg/mL (≈ 3.42 µM) | MIC Enterococcus faecalis (GC 4554) (Enterococcus sp.; Enterococcus faecalis (GC 4554)): 16 µg/mL (≈ 13.7 µM) | MIC Enterococcus faecalis (GC 6189) (Enterococcus sp.; Enterococcus faecalis (GC 6189)): 16 µg/mL (≈ 13.7 µM) | MIC Enterococcus faecium (GC 2243) (Enterococcus sp.; Enterococcus faecium (GC 2243)): 4 µg/mL (≈ 3.42 µM) | MIC Enterococcus faecium (GC 4556) (Enterococcus sp.; Enterococcus faecium (GC 4556)): 16 µg/mL (≈ 13.7 µM) | MIC Enterococcus faecium (GC 4557) (Enterococcus sp.; Enterococcus faecium (GC 4557)): 8 µg/mL (≈ 6.85 µM) | MIC Enterococcus avium (GC 4558) (Enterococcus sp.): 4 µg/mL (≈ 3.42 µM) | MIC Enterococcus faecalis (ATCC 29212) (Enterococcus sp.): 8 µg/mL (≈ 6.85 µM) | MIC Enterococcus faecalis (GC 2242) (Enterococcus sp.): 8 µg/mL (≈ 6.85 µM) | MIC Enterococcus faecalis (GC 2691) (Enterococcus sp.): 16 µg/mL (≈ 13.7 µM) | MIC Enterococcus faecalis (GC 3059) (Enterococcus sp.): 32 µg/mL (≈ 27.4 µM) | MIC Enterococcus faecalis (GC 4552) (Enterococcus sp.): 8 µg/mL (≈ 6.85 µM) | MIC Enterococcus faecalis (GC 4553) (Enterococcus sp.): 4 µg/mL (≈ 3.42 µM) | MIC Enterococcus faecalis (GC 4554) (Enterococcus sp.): 16 µg/mL (≈ 13.7 µM) | MIC Enterococcus faecalis (GC 6189) (Enterococcus sp.): 16 µg/mL (≈ 13.7 µM) | MIC Enterococcus faecium (GC 2243) (Enterococcus sp.): 4 µg/mL (≈ 3.42 µM) | MIC Enterococcus faecium (GC 4556) (Enterococcus sp.): 16 µg/mL (≈ 13.7 µM) | MIC Enterococcus faecium (GC 4557) (Enterococcus sp.): 8 µg/mL (≈ 6.85 µM) | MIC Coagulase Negative Staphylococcus (GC 4547) (Staphylococcus sp.): 4 µg/mL (≈ 3.42 µM) | MIC Coagulase Negative Staphylococcus (GC 4548) (Staphylococcus sp.): 8 µg/mL (≈ 6.85 µM) | MIC Coagulase Negative Staphylococcus (GC 4549) (Staphylococcus sp.): 2 µg/mL (≈ 1.71 µM) | MIC Coagulase Negative Staphylococcus (GC 4551) (Staphylococcus sp.): 4 µg/mL (≈ 3.42 µM) | MIC Staphylococcus aureus SMITH (GC 4543) (Staphylococcus sp.): 4 µg/mL (≈ 3.42 µM) | MIC Staphylococcus haemolyticus (GC 4546) (Staphylococcus sp.): 8 µg/mL (≈ 6.85 µM) | MIC Staphylococcus aureus-SMITH (GC 4543) (Staphylococcus sp.; strain SMITH GC 4543): 4 µg/mL (≈ 3.42 µM) | MIC Streptococcus agalactiae (GC 4564) (Streptococcus sp.; Streptococcus agalactiae (GC 4564)): 8 µg/mL (≈ 6.85 µM) | MIC Streptococcus pneumoniae (ATCC 6301) (Streptococcus sp.; Streptococcus pneumoniae (ATCC 6301)): 8 µg/mL (≈ 6.85 µM) | MIC Streptococcus pneumoniae (GC 1894) (Streptococcus sp.; Streptococcus pneumoniae (GC 1894)): 8 µg/mL (≈ 6.85 µM) | MIC Streptococcus pneumoniae (GC 4565) (Streptococcus sp.; Streptococcus pneumoniae (GC 4565)): 8 µg/mL (≈ 6.85 µM) | MIC Streptococcus pyogenes (GC 4563) (Streptococcus sp.; Streptococcus pyogenes (GC 4563)): 1 µg/mL (≈ 0.856 µM) | MIC Streptococcus agalactiae (GC 4564) (Streptococcus sp.): 8 µg/mL (≈ 6.85 µM) | MIC Streptococcus pneumoniae (ATCC 6301) (Streptococcus sp.): 8 µg/mL (≈ 6.85 µM) | MIC Streptococcus pneumoniae (GC 1894) (Streptococcus sp.): 8 µg/mL (≈ 6.85 µM) | MIC Streptococcus pneumoniae (GC 4565) (Streptococcus sp.): 8 µg/mL (≈ 6.85 µM) | MIC Streptococcus pyogenes (GC 4563) (Streptococcus sp.): 1 µg/mL (≈ 0.856 µM)

Reference: patent publication US8247211B2, “Glycopeptide antibiotics” (American Cyanamid Company, priority 2001, dated 2012)
